Paper PMC9151520 (Archives of Toxicology, 2022)
Where “and” joins values, the source holds several entries; their conditions need not be identical. Equal values may be shown once. Read-outs that look alike come from different tables or passages of the source.

Legend:
[1] = system: p53 signaling (p53RE-bla HCT-116 cells); experiment: cells; assay type: cell-based
[2] = system: p53 signaling (p53RE-bla HCT-116 cells); details: for EC50: read-out: p53 activation EC50
[3] = system: p53 signaling (p53RE-bla HCT-116 cells)
[4] = system: p53RE-bla HCT-116 cells
[5] = system: p53 signaling (p53RE-bla HCT-116 cells); experiment: cells; details: Homo sapiens
[6] = system: p53 signaling (p53RE-bla HCT-116 cells); experiment: cells; assay type: cell-based; details: Homo sapiens; for EC50: HCT-116, 0.5 h
[7] = system: p53 signaling (p53RE-bla HCT-116 cells); experiment: cells; assay type: cell-based
[8] = system: p53 signaling (p53RE-bla HCT-116 cells); experiment: cells; details: Homo sapiens; remark: listed apart in the source
[9] = HCT-116, read-out: p53 activation efficacy

Row | SMILES | p53 activation EC50 [1] | p53 activation efficacy [2] | p53 activation EC50 [3] | Viability EC50 [4] | Viability efficacy [4] | Emax [5, 9] [%] | p53 activation efficacy [1] | EC50 [2] [µM] | EC50 [6] [µM] | EC50 ([7]; Homo sapiens, HCT-116) [µM] | EC50 ([8]; HCT-116) [µM] | Emax ([8]; HCT-116, read-out: efficacy) [%] | also measured
1 | C[C@]12CC[C@H]3[C@@H](CC[C@@]45O[C@@H]4C(O)=C(C#N)C[C@]35C)[C@@H]1CC[C@@H]2O [Trilostane] | inactive | inactive | inactive | inactive | inactive | 53.3 |  |  |  |  |  |  | EC50 ([1]; Homo sapiens, HCT-116, read-out: p53 activation EC50): 44.1 µM; Emax ([1]; Homo sapiens, HCT-116, read-out: p53 activation efficacy): 98.3%; p53 activation EC50 [2]: inactive; EC50 ([5]; HCT-116, read-out: p53 activation EC50): 41 µM
2 | Nc1ccc(-c2ccc(N)c(Cl)c2)cc1Cl [3,3'-Dichlorobenzidine] |  | inactive | inactive | inactive | inactive | 33.9 |  |  |  |  |  |  | EC50 ([1]; read-out: p53 activation EC50): 16.4 µM; p53 activation EC50 [2]: inactive
3 | Nc1ccc2c(O)cc(S(=O)(=O)O)cc2c1 |  | 57.1256 and 31.0337 | inactive | inactive | inactive | 27 | 61.5673 and 83.6027 | 10.9 |  |  |  |  | 
4 | COP(=O)(OC)O/C(C)=C/C(=O)N(C)C [Dicrotophos] | inactive | 47.1617 | inactive | inactive | inactive |  | inactive | 14.3 | 11.5 | 9.07 | 11.4 | 40.6 | 
5 | Oc1c(Cl)c(Cl)cc(Cl)c1Cl [2,3,5,6-Tetrachlorophenol] |  |  |  |  |  |  |  |  |  |  |  |  | EC50 ([1]; Homo sapiens, HCT-116, read-out: EC50, p53 activation, cherry pick confirmation): 29.5 µM; EC50 ([1]; Homo sapiens, HCT-116, read-out: EC50, p53 activation, primary screening): 24.6 µM; Emax ([1]; Homo sapiens, HCT-116, read-out: Efficacy, p53 activation, cherry pick confirmation): 31.3%; Emax ([1]; Homo sapiens, HCT-116, read-out: Efficacy, p53 activation, primary screening): 36.3%; EC50, p53 activation, cherry pick confirmation [2]: inactive; EC50, p53 activation, primary screening [2]: inactive; Efficacy, p53 activation, cherry pick confirmation [2]: inactive; Efficacy, p53 activation, primary screening [2]: inactive; EC50, p53 activation, cherry pick confirmation [3]: inactive; Efficacy, p53 activation, cherry pick confirmation [3]: inactive; EC50, viability, cherry pick confirmation [4]: inactive; EC50, viability, primary screening [4]: inactive; Efficacy, viability, cherry pick confirmation [4]: inactive; Efficacy, viability, primary screening [4]: inactive; EC50 ([5]; HCT-116, read-out: EC50, p53 activation, primary screening): 21 µM; Emax ([5]; HCT-116, read-out: Efficacy, p53 activation, primary screening): 35.1%
6 | COP(=S)(OC)Oc1ccc(S(N)(=O)=O)cc1 [Cythioate] |  |  |  |  |  |  |  |  |  |  |  |  | p53 activation EC50, No MS [1]: inactive; p53 activation Efficacy, No MS [1]: inactive; p53 activation EC50, RLM [2]: inactive; p53 activation Efficacy, RLM [2]: inactive; p53 activation EC50, HLM [3]: inactive; Viability EC50, HLM [4]: inactive; Viability EC50, No MS [4]: inactive; Viability EC50, RLM [4]: inactive; Viability Efficacy, HLM [4]: inactive; Viability Efficacy, No MS [4]: inactive; Viability Efficacy, RLM [4]: inactive; EC50 ([5]; HCT-116, read-out: p53 activation EC50, HLM): 3.59 µM
7 | COP(=S)(OC)Oc1cc(Cl)c(Br)cc1Cl [Bromofos] | inactive | 62.741 | inactive | inactive | inactive |  | inactive | 15.1 | 16.2 |  | 17.8 | 66.6 | Emax ([6]; HCT-116, read-out: efficacy): 40.6%; EC50 [7]: Inactive
8 | COP(N)(=S)Oc1ccccc1C(=O)OC(C)C (stereo not drawn) [Isocarbophos] |  |  |  |  |  |  |  |  | 25.6 | 1.86 | 4.93 | 83.1 | p53 activation EC50, primary screening [1]: inactive; p53 activation efficacy, primary screening [1]: inactive; EC50 ([1]; Homo sapiens, HCT-116, read-out: p53 activation EC50, cherry pick confirmation): 2.05 µM; Emax ([1]; Homo sapiens, HCT-116, read-out: p53 activation efficacy, cherry pick confirmation): 32.4%; p53 activation EC50, cherry pick confirmation [3]: inactive; p53 activation efficacy, cherry pick confirmation [3]: inactive; Viability EC50, cherry pick confirmation [4]: inactive; Viability EC50, primary screening [4]: inactive; Viability efficacy, cherry pick confirmation [4]: inactive; Viability efficacy, primary screening [4]: inactive; EC50 ([8]; HCT-116, read-out: p53 activation EC50, cherry pick confirmation): 3.72 µM; Emax ([8]; HCT-116, read-out: p53 activation efficacy, cherry pick confirmation): 78.7%
9 | CCOP(=S)(OCC)SCSP(=S)(OCC)OCC [Ethion] | inactive | 48.0253 | inactive | inactive | inactive |  | inactive | 2.04 | 5.91 | 3.29 | 6.2 | 53.8 | 
